“Also recorded” adds a separate entry of the source. Where two headings read alike, the source gives them in different places.
What was measured:
[1] = test system: isolated pancreatic islets of ^EndomKir6.2^V108E mice; test: Static incubation assay of GSIS with diazoxide; type: cell-based, mouse; details: 100 µM diazoxide; for Amount of insulin (secreted/total), Mean: 0 µM SpTx1, mean of 6 mice
Method: (§1) Pancreatic islets were isolated as previously described ([Doliba et al., 2017]; [Li et al., 2009]). For each experiment, one to four adult mice (8–12 weeks of age) were euthanized by exposing them to an overdose of isoflurane through inhalation and a subsequent cervical dislocation. Following a perfusion through the common bile duct with a Hank’s balanced salt solution (HBSS; GIBCO, 14175) containing collagenase XI (1–2 mg/ml, Millipore-Sigma, C7657) and 1 mM CaCl2, the pancreas was dissected and digested at 37°C for 5 or 15 min. After the digestion, the collagenase in the pancreas homogenate was removed through several washes with HBSS containing 0.3% (wt/vol) bovine serum albumin, and dissociated islets were then hand-picked into a recovery media RPMI1640 (GIBCO, 21870) with the following supplements: 10% fetal bovine serum, 2 mM GlutaMAX, 1 mM sodium pyruvate, penicillin–streptomycin, and 10 mM HEPES titrated to pH 7.4 with NaOH. For the perifusion assay, the digested pancreases samples were subject to a Ficoll gradient purification, and the islets in the enriched fraction were washed with the recovery solution before handpicking islets. During this process, the samples from four mice were pooled to ensure a sufficient number of islets were used to perform assays under compared conditions with the same population in each independent round of experiment. The handpicked islets were placed in 5% CO2 incubator at 37°C to rest overnight prior to the static incubation assay or 2 days prior to the perifusion assay.
For insulin secretion in each independent static incubation assays, pancreatic islets from one mouse (8–12 weeks of age) were used as follows. […] Washed islets were equilibrated in the final wash step for 1 hr at 5% CO2 and 37°C. Using a previous study as reference ([Remedi et al., 2009]) and on the basis of the amount of insulin secretion and the sensitivity of insulin assay, we chose to use 5–10 islets in each assay. […]

[2] = test system: β cells in isolated pancreatic islets from ^EndomKir6.2^V108E mice; test: Membrane potential (Vm), perforated whole-cell patch clamp; type: cell-based, mouse; details: glibenclamide; nominal glucose-free condition
Method: (§2) Electrophysiological membrane potential (Vm) measurements from individual cells in isolated but intact islets cultured on glass coverslips were performed using the perforated whole-cell patch-clamp method as described ([Yang et al., 2021]). Wax-coated electrodes (G85150T, Warner) were back filled with the intracellular solution containing (in mM): 76 K2SO4, 10 KCl, 10 NaCl, 6 MgCl2, 30 mannitol, 30 HEPES, where pH was titrated to 7.2 at 35°C with N-methyl-d-glucamine (NMG). The tip of the pipette was filled with this solution and the remainder was back filled with the same solution plus β-escin (6 or 8 µM). The free Mg^2+ concentration of this solution, taking the divalent cation-chelating action of SO4^2− into consideration, is estimated to be about 2 mM. The extracellular solution contained (in mM): 135 NaCl, 4 KCl, 2 CaCl2, 2 MgCl2, 10 HEPES, where pH was titrated to 7.4 at 35°C with NMG. Glucose was added to this solution as required and the osmolarity was adjusted to ~300 mOsm with mannitol. All salts were from Millipore-Sigma. Using the solutions described above, the initial input resistance of the electrode was typically 4–8 MΩ. The electrophysiological recordings were performed under a continuous perfusion condition, 0.3–0.4 ml/min (Instech), at ~35°C (TC-124A and TC-344B Warner). Islets were equilibrated in the recording chamber for 10–15 min before measurements were made. Adequate whole-cell access was achieved typically within 5–10 min.
(§3) The output of the patch-clamp amplifier (Axopatch 200B, Molecular Devices) was digitized at 2 kHz and stored for later analysis using Igor Pro (v8 or v9, Wavemetrics). The liquid junction potential has been subtracted from the results. To estimate the average Vm values under different conditions, the Vm traces were digitally Gaussian filtered at 0.1 Hz and the filtered data points in the last 50 s of a segment of interest were averaged. The filtered traces are superimposed on the illustrative original traces in the figures where appropriate. The variations in data values reflected both biological variability and technical errors (Figures 2D–F–6D–F). No data, which were successfully recorded over sufficient durations that allowed for adequate examination the membrane potential under the various specified conditions, were excluded.

[3] = test system: β cells in isolated pancreatic islets from wild-type mice; test: as above; type: cell-based, mouse
Method: as §2, §3

[4] = test system: isolated pancreatic islets of ^EndomKir6.2^V108E mice; type: cell-based, mouse
Method: as §1
For each perifusion experiment ([Doliba et al., 2017]), pancreatic islets from four mice (8–12 weeks of age) were used in the following manner. […] At the end of each experiment, the islets were recovered and placed in acidified ethanol to extract total insulin content as described above. Insulin in the samples was assayed using an insulin-specific radioimmunoassay kit (RI-13K, Millipore). For each condition, the study was performed three to six times. […] No experiments were excluded.

[5] = test system: wild-type mice; test: Blood glucose monitoring of overnight-fasted mice; type: in vivo, mouse; details: glibenclamide 40 mg/kg body weight, single intraperitoneal application; end of 2-hr observation period
Method: We evaluated the blood glucose levels of tested mice (8–12 weeks of age) using a digital glucometer (Clarity Diagnostics, BG1000). Induced diabetic mice were tested daily starting from the day after the final administration of tamoxifen until their blood glucose levels reached above 600 mg/dl. Following overnight (16 hr) fasting, blood glucose monitoring and plasma collection were then performed using specified mouse lines at designated time points over a 2-hr observation period in the next morning. […] At each given time point, the glucose level of a blood drop obtained from the cut tail tip was measured twice using a glucometer. For any case where the level was above 600 mg/dl, the blood sample was diluted by an equal volume of the phosphate-buffer solution titrated to pH 7.3 before the glucose level was remeasured for two times. Additionally, four to five drops (~12 μl) of tail vein blood were collected at individual specified time points into a tube containing K2EDTA (1.5 mg/ml blood) and centrifuged at 2000 × g for 5 min at 4°C. 5 μl of the resulting plasma was frozen in liquid nitrogen, stored at −20°C, and assayed using a colorimetric insulin-detecting ELISA kit (CrystalChem, 90080) within a week. Mice were grouped according to genotypes. Using a previous study as reference ([Remedi et al., 2009]), we determined the number of mice for individual groups. […]

[6] = test system: ^Rosa26mKir6.2^NDM-V108E mice; test: Plasma insulin assay (ELISA); type: in vivo, mouse; details: glibenclamide 40 mg/kg, single bolus
Source text: (§4) In ^Rosa26mKir6.2^NDM and ^Rosa26mKir6.2^NDM-V108E mice, the expression of mutant Kir6.2 activity occurred in the pancreas upon the excision of the Neo/WSS cassette by the tamoxifen-dependent Cre recombinase ([Remedi et al., 2009]). Exposure to tamoxifen permitted the translocation of Cre recombinase from the cytoplasm to the nucleus in order to perform the excision between loxP sites within the targeted Rosa26 locus. To induce the expression of mutant Kir6.2 activity and consequently the diabetic phenotype in these mutant mice (8–12 weeks of age), corn oil containing tamoxifen (75 mg/kg body weight; prepared as described below) was injected intraperitoneally for five consecutive days. Injection sites were sealed with a tissue adhesive (3M Vetbond) to prevent leakage of the injected liquid.
(§5) We evaluated the blood glucose levels of tested mice (8–12 weeks of age) using a digital glucometer (Clarity Diagnostics, BG1000). Induced diabetic mice were tested daily starting from the day after the final administration of tamoxifen until their blood glucose levels reached above 600 mg/dl. […] At each given time point, the glucose level of a blood drop obtained from the cut tail tip was measured twice using a glucometer. […]

[7] = test system: ^Rosa26mKir6.2^NDM-V108E mice; test: Blood glucose monitoring of overnight-fasted diabetic mice; type: in vivo, mouse; details: glibenclamide 40 mg/kg, single bolus
Source text: as §4, §5

CC1=NS(=O)(=O)c2cc(Cl)ccc2N1 [diazoxide]
effect on insulin secretion ([1]; 16.7 mM glucose): lowered the insulin secretion in 16.7 mM glucose to the baseline level | Amount of insulin (secreted/total), Mean ([1]; 3 mM glucose): 0.2568 | Amount of insulin (secreted/total), Mean ([1]; 16.7 mM glucose): 0.2327

COc1ccc(Cl)cc1C(=O)NCCc1ccc(S(=O)(=O)NC(=O)NC2CCCCC2)cc1 [glibenclamide]
effect on Vm [2]: elicited action potentials | Vm ([3]; 0.2 uM Glibenclamide in 5 mM Glucose, islet 1): -0.05335 V | Vm ([3]; 0.2 uM Glibenclamide in 5 mM Glucose, islet 2): -0.03306 V | Vm ([3]; 0.2 uM Glibenclamide in 5 mM Glucose, islet 3): -0.0403 V | Vm ([3]; 0.4 uM Glibenclamide in 0 mM Glucose, islet 1): -0.05043 V | Vm ([3]; 0.4 uM Glibenclamide in 0 mM Glucose, islet 2): -0.02061 V | Vm ([3]; 0.4 uM Glibenclamide in 0 mM Glucose, islet 3): -0.04501 V | Vm ([3]; 0.4 uM Glibenclamide in 0 mM Glucose, islet 4): -0.03684 V | Vm ([3]; 0.4 uM Glibenclamide in 0 mM Glucose, islet 5): -0.05294 V | Vm ([3]; 0.4 uM Glibenclamide in 0 mM Glucose, islet 6): -0.05777 V | Vm ([3]; 0.4 uM Glibenclamide in 8 mM Glucose, islet 1): -0.04669 V | Vm ([3]; 0.4 uM Glibenclamide in 8 mM Glucose, islet 2): -0.04799 V | Vm ([3]; 0.4 uM Glibenclamide in 8 mM Glucose, islet 3): -0.04272 V | Vm ([3]; 0.4 uM Glibenclamide in 8 mM Glucose, islet 5): -0.05311 V | Vm ([3]; 0.4 uM Glibenclamide in 8 mM Glucose, islet 6): -0.0321 V | effect on Vm ([3]; glibenclamide 0.4 µM, glucose 0 mM): dramatically depolarized Vm and triggered a train of action potentials | insulin secretion after removal of inhibitor and return to 3 mM glucose ([4]; 1 μM glibenclamide): the elevated insulin secretion largely persisted | effect on insulin secretion ([4]; 1 μM glibenclamide with glucose raised from 3 to 10 mM): yielded insulin secretion much greater than that from elevated glucose alone | insulin secretion in nonstimulating glucose (primary secretagogue) ([4]; 1 μM glibenclamide, 3 mM glucose, added 10 min before raising glucose): triggered sizable secretion of insulin; also recorded: stimulated sizable secretion of insulin | effect on insulin secretion ([4]; 1 μM glibenclamide, 16.7 mM glucose): caused much greater secretion of insulin than it did in the absence of glibenclamide | effect on blood glucose level [5]: lowered the blood glucose level of wild-type mice by half | effect on plasma insulin [6]: nor caused a rise of insulin in the plasma | effect on elevated blood glucose level [7]: neither markedly lowered the elevated blood glucose level
